Test results as given in PubChem BioAssay AID977605 (Broad Institute, 2014).
Calls of active or inactive are those of the source.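 How the source made its calls: active means fitted curve reaches 40% activation below the top valid tested dose, in every test run; inconclusive means test runs disagree on the call; inactive means the rest, including effects opposite to the expected direction.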

test: endothelial E-selectin upregulation by compounds – imaging, HUVEC, cherry-picked samples, dose response (AID 977605); settings: HUVEC E-selectin immunostaining, at 18 µM (top of the series), percent of TNF-alpha response over vehicle;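 further: signal is the share of imaged cells scored positive for E-selectin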

SMILES | activation
C[C@H](CO)N1C[C@H](C)[C@H](CN(C)C(=O)Nc2ccc3c(c2)OCO3)Oc2ccc(NC(=O)CCCCCC(=O)Nc3ccccc3N)cc2CC1=O | 0.255% (inactive)

same assay, conditions: HUVEC E-selectin immunostaining, at 19.5 µM (top of the series)

SMILES | activation
Cc1cccc(CN2CCCC(C(=O)c3ccc4c(c3)OCO4)C2)n1 (stereo not given) | 4.78% (inactive)
C=COCCn1c(C)c(C(C)=O)c2cc(O)ccc21 | 0.265% (inactive)

same assay, conditions: HUVEC E-selectin immunostaining, at 19.5 µM (top of the series), percent of TNF-alpha response over vehicle

SMILES | activation
CCCCNC(=O)N1CCN(c2ccccc2OCC)CC1 | 0.12% (inactive)
C=C(C)CCC(C)N1CCC(n2nccc2NC(=O)CCOc2ccccc2)CC1 (stereo not given) | -0.056% (inactive)
COc1ccc(CN(C)C[C@@H]2Oc3ccc(NC(=O)Nc4ccc(F)cc4)cc3CC(=O)N([C@H](C)CO)C[C@H]2C)cc1 | 0.445% (inactive)
C[C@H](CO)N1C[C@H](C)[C@H](CN(C)Cc2ccc(C(F)(F)F)cc2)Oc2ccc(NS(=O)(=O)c3cn(C)cn3)cc2CC1=O | -0.066% (inactive)
C[C@@H]1CN([C@H](C)CO)C(=O)c2cc(NS(=O)(=O)c3ccccc3)ccc2O[C@H]1CN(C)C(=O)NC1CCCCC1 | 0.289% (inactive)
Cc1cc(C(=O)Nc2cccc3c2O[C@H](CN(C)C(=O)NC2CCCCC2)[C@@H](C)CN([C@@H](C)CO)C3=O)n(C)n1 | -0.268% (inactive)
C=CCN(C(=O)c1csnn1)C(C(=O)NC1CCCCC1)c1ccccc1 (stereo not given) | -0.215% (inactive)
COc1ccccc1OCC(=O)Nc1ccc(S(=O)(=O)N2CCN(C)CC2)cc1 | -0.127% (inactive)
CCNC(=O)CC1C(=O)N(c2ccc(OC)cc2)C(=O)N1CCOC (stereo not given) | -0.131% (inactive)
CO[C@@H]1CN(C)C(=O)c2cc(NS(C)(=O)=O)ccc2OC[C@@H](C)N(C(=O)c2ccc3c(c2)OCO3)C[C@@H]1C | -0.203% (inactive)
Cc1ccc(COc2ccc(/C=N/O)cc2)cc1 | -0.083% (inactive)
Cc1ccc(C(=O)Nc2cc(C)nn2CCC#N)cc1 | 0.178% (inactive)
COc1ccc(CNC(=O)Cn2ccc(N)nc2=O)cc1 | 0.076% (inactive)
C[C@H]1CN([C@@H](C)CO)C(=O)c2cc(NS(C)(=O)=O)ccc2O[C@@H]1CN(C)Cc1ccc(Cl)c(Cl)c1 | -0.025% (inactive)
CC(C)NC(=O)Nc1ccc2c(c1)C(=O)N(C)[C@@H]1CC[C@@H](CC(=O)NCC(F)(F)F)O[C@@H]1CO2 | 0.147% (inactive)
C[C@H](CO)N1C[C@H](C)[C@@H](CN(C)Cc2ccc(Oc3ccccc3)cc2)Oc2ccc(NS(C)(=O)=O)cc2CC1=O | 0.311% (inactive)
COc1cccc(NC(=O)c2ccc(OC(F)(F)F)cc2)c1 | 0.305% (inactive)
CCC(=O)Oc1cccc(C(=O)Nc2cccc(NC(=O)c3ccco3)c2)c1 | -0.083% (inactive)
C[C@H](CO)N1C[C@H](C)[C@@H](CN(C)S(=O)(=O)c2ccc(Cl)cc2)Oc2ccc(NS(=O)(=O)c3ccc(F)cc3)cc2CC1=O | -0.113% (inactive)
C[C@@H]1CN([C@H](C)CO)C(=O)c2cc(NC(=O)Cn3cnnn3)ccc2O[C@@H]1CN(C)S(=O)(=O)c1ccccc1 | 0.017% (inactive)
Cc1cc(NC(=O)CCC(=O)N(c2ccccc2)C(C(=O)NC2CCCC2)c2ccc(F)cc2)no1 (stereo not given) | 0.168% (inactive)

SMILES | activation
C[C@H]1CN([C@@H](C)CO)C(=O)c2cccc(NS(=O)(=O)c3ccc(F)cc3)c2O[C@H]1CN(C)S(=O)(=O)c1cccs1 | -0.103% (inactive)
C[C@@H]1CN([C@@H](C)CO)C(=O)c2cccc(NS(=O)(=O)c3cn(C)cn3)c2O[C@H]1CN(C)C(=O)Nc1ccc2c(c1)OCO2 | -0.015% (inactive)
CN(C)CCN1CCN(C2CN(Cc3cn(Cc4ccc(C(F)(F)F)cc4)nn3)S(=O)(=O)C2)CC1 (stereo not given) | 1.57% (inactive)
C[C@@H]1CN([C@@H](C)CO)C(=O)c2cc(NC(=O)Cc3ccccc3)ccc2O[C@@H]1CN(C)Cc1ccc(Cl)c(Cl)c1 | 0.002% (inactive)
COc1ccc(NC(=O)Nc2ccc3c(c2)C(=O)N([C@H](C)CO)C[C@H](C)[C@@H](CN(C)Cc2ccncc2)O3)cc1 | 4.31% (inactive)
O=C(c1cncc(Br)c1)N1CCN(S(=O)(=O)c2ccccc2C(F)(F)F)CC1 | -0.01% (inactive)
C[C@@H]1CN([C@H](C)CO)C(=O)Cc2cc(NC(=O)Nc3ccccc3)ccc2O[C@@H]1CN(C)C | 4.89% (inactive)
CC(C)CCNC(=O)c1cn(C)c2ccc(S(=O)(=O)N3CCCC3)cc2c1=O | -0.129% (inactive)
C[C@@H]1CN([C@@H](C)CO)C(=O)Cc2cc(NC(=O)c3ccncc3)ccc2O[C@@H]1CN(C)S(C)(=O)=O | 4.61% (inactive)
O=S1(=O)CC(N2CCN(Cc3ccccc3F)CC2)CN1Cc1cn(Cc2ccccc2)nn1 (stereo not given) | 0.129% (inactive)
CCn1nc(CC(=O)O)c2ccccc2c1=O | 5.69% (inactive)
C[C@H](CO)N1C[C@H](C)[C@H](CN(C)Cc2ccc(Cl)c(Cl)c2)Oc2c(NS(=O)(=O)c3cn(C)cn3)cccc2C1=O | -0.123% (inactive)
Cc1ccc(S(=O)(=O)N(C)C[C@@H]2Oc3c(NS(=O)(=O)c4ccc(Cl)cc4)cccc3C(=O)N([C@@H](C)CO)C[C@H]2C)cc1 | -0.172% (inactive)
CC(C)C(c1nnnn1C1CCCCC1)N1CCN(C(=O)c2ccco2)CC1 (stereo not given) | -0.112% (inactive)
COc1ccc(CN(C)C[C@@H]2Oc3ccc(NC(=O)c4ccncc4)cc3C(=O)N([C@@H](C)CO)C[C@H]2C)cc1 | 19.2% (inactive)
C[C@H](CO)N1C[C@H](C)[C@H](CN(C)Cc2ccncc2)Oc2ccc(NC(=O)CCC(F)(F)F)cc2CC1=O | -0.107% (inactive)
O=C(CN(C(=O)c1csnn1)c1ccc2c(c1)OCCO2)NCc1ccc(F)cc1 | -0.09% (inactive)
COc1ccc(CN2CCN(C(=O)c3ccccc3C(=O)c3ccccc3)CC2)cc1OC | 0.003% (inactive)
COc1ccc(S(=O)(=O)Nc2cccc3c2O[C@H](CN(C)C(=O)Nc2c(C)noc2C)[C@H](C)CN([C@H](C)CO)C3=O)cc1 | -0.109% (inactive)
C[C@@H]1CN([C@H](C)CO)C(=O)c2cc(NS(C)(=O)=O)ccc2O[C@@H]1CN(C)C(=O)Nc1ccccc1 | -0.094% (inactive)
C[C@@H]1CN([C@H](C)CO)C(=O)c2cc(NC(=O)CCCCCC(=O)Nc3ccccc3N)ccc2O[C@@H]1CN(C)C(=O)Nc1ccc2c(c1)OCO2 | -0.103% (inactive)

SMILES | activation
COc1ccc(S(=O)(=O)Nc2cccc3c2O[C@H](CN(C)C(=O)Nc2cccc4ccccc24)[C@@H](C)CN([C@H](C)CO)C3=O)cc1 | -0.185% (inactive)
C[C@H]1CN([C@@H](C)CO)C(=O)Cc2cc(NC(=O)Cc3cn(C)c4ccccc34)ccc2O[C@H]1CN(C)Cc1ccc(C(F)(F)F)cc1 | 16.2% (inactive)
C[C@@H]1CN([C@@H](C)CO)C(=O)c2cc(N(C)C)ccc2O[C@@H]1CN(C)C(=O)Nc1cccc2ccccc12 | -0.224% (inactive)
C[C@H](CO)N1C[C@H](C)[C@H](CN(C)CC2CCCCC2)Oc2ccc(NC(=O)Nc3ccc4c(c3)OCO4)cc2C1=O | -0.185% (inactive)
Cc1ccc(S(=O)(=O)N2CCN(C(=O)Cc3sc(C)nc3-c3ccc(F)cc3)CC2)c(C)c1 | -0.025% (inactive)
O=S(=O)(Nc1cccc(Oc2cnccn2)c1)c1ccc(F)cc1 | 0.221% (inactive)
C[C@@H]1CN([C@H](C)CO)C(=O)Cc2cc(NC(=O)C3CC3)ccc2O[C@@H]1CN(C)Cc1ccc2c(c1)OCO2 | -0.006% (inactive)
CC(C)OC(=O)c1cccnc1N1CCN(c2cccc(Cl)c2)CC1 | 0.039% (inactive)
C[C@@H]1CN([C@H](C)CO)C(=O)c2cccc(NS(C)(=O)=O)c2O[C@@H]1CN(C)C(=O)Nc1cccc2ccccc12 | -0.133% (inactive)
C[C@H](CO)N1C[C@H](C)[C@H](CN(C)Cc2ccc(Cl)c(Cl)c2)Oc2ccc(NC(=O)Nc3ccc4c(c3)OCO4)cc2CC1=O | -0.197% (inactive)
Cc1noc(C)c1S(=O)(=O)N(C)C[C@H]1Oc2ccc(NC(=O)C3CC3)cc2CC(=O)N([C@@H](C)CO)C[C@@H]1C | 32.2% (inactive)
Cc1cc(NC(=O)c2ccccc2F)n(C(C)(C)C)n1 | 0.21% (inactive)
COC(=O)c1noc(C)c1-c1ccnn1C(=O)c1ccc(C)cc1 | 0.122% (inactive)
C[C@@H]1CN([C@H](C)CO)C(=O)c2cc(NC(=O)NC3CCCCC3)ccc2O[C@H]1CN(C)S(=O)(=O)c1ccc(Cl)cc1 | 1.03% (inactive)
O=C(c1ccco1)N1CCN(C(=O)C2CC2)CC1 | -0.098% (inactive)
C[C@@H]1CN([C@H](C)CO)C(=O)c2cc(NC(=O)Cn3cnnn3)ccc2O[C@H]1CN(C)S(=O)(=O)c1ccccc1 | 0% (inactive)
C[C@@H]1CN([C@@H](C)CO)C(=O)c2cccc(NC(=O)Nc3ccc(F)cc3)c2O[C@H]1CN(C)CC1CCCCC1 | -0.153% (inactive)
CC(C)(C)c1cc(CCC(=O)NCc2ccccn2)cc(C(C)(C)C)c1O | -0.086% (inactive)
COc1ccc(S(=O)(=O)N(C)C[C@H]2Oc3ccc(NC(=O)c4ccncc4)cc3C(=O)N([C@H](C)CO)C[C@@H]2C)cc1 | -0.104% (inactive)

same assay, conditions: HUVEC E-selectin immunostaining, at 21 µM (top of the series), percent of TNF-alpha response over vehicle

SMILES | activation
COc1ccc(S(=O)(=O)N(C)C[C@H]2Oc3ccc(NC(=O)Nc4ccc5c(c4)OCO5)cc3CC(=O)N([C@H](C)CO)C[C@H]2C)cc1 | 0.257% (inactive)
C[C@@H]1CN([C@H](C)CO)C(=O)Cc2cc(NC(=O)Nc3ccc(C(F)(F)F)cc3)ccc2O[C@H]1CN(C)Cc1ccc(Oc2ccccc2)cc1 | -0.245% (inactive)
CC(C)NC(=O)N(C)C[C@H]1Oc2c(NC(=O)CCCCCC(=O)Nc3ccccc3N)cccc2C(=O)N([C@@H](C)CO)C[C@H]1C | -0.093% (inactive)
COc1ccc(CN(C)C[C@H]2Oc3ccc(NC(=O)Nc4c(C)noc4C)cc3C(=O)N([C@@H](C)CO)C[C@H]2C)cc1 | 0.014% (inactive)
C[C@H](CO)N1C[C@H](C)[C@H](CN(C)S(=O)(=O)c2ccccc2)Oc2c(NC(=O)C3CCOCC3)cccc2C1=O | 3.15% (inactive)
C[C@@H]1CN([C@H](C)CO)C(=O)c2cc(NC(=O)CCCCCC(=O)Nc3ccccc3N)ccc2O[C@H]1CN(C)C(=O)Nc1ccc2c(c1)OCO2 | -0.113% (inactive)
